# Reference: the NIST ThermoML archive (doi:10.1016/j.tca.2006.01.020)
# ± gives the expanded uncertainty stated by the source.
# Conditions: 101.33 kPa, Crystal, Small (less than 1 g) adiabatic calorimetry
compound,measurement,setting,value
[Ba+2].[O-2].[O-2].[O-2].[Zr+4] [barium zirconium(IV) oxide],molar entropy,10 K,0.053 ± 0.024 J/K/mol
same,molar entropy,20 K,0.666 ± 0.033 J/K/mol
same,molar entropy,30 K,2.753 ± 0.13 J/K/mol
same,molar entropy,40 K,6.284 ± 0.17 J/K/mol
same,molar entropy,50 K,10.7 ± 0.23 J/K/mol
same,molar entropy,60 K,15.67 ± 0.3 J/K/mol
same,molar entropy,70 K,20.91 ± 0.38 J/K/mol
same,molar entropy,80 K,26.27 ± 0.46 J/K/mol
same,molar entropy,90 K,31.67 ± 0.59 J/K/mol
same,molar entropy,100 K,37.05 ± 0.67 J/K/mol
same,molar entropy,120 K,47.64 ± 0.83 J/K/mol
same,molar entropy,140 K,57.88 ± 0.98 J/K/mol
same,molar entropy,160 K,67.72 ± 1.1 J/K/mol
same,molar entropy,180 K,77.16 ± 1.3 J/K/mol
same,molar entropy,200 K,86.23 ± 1.4 J/K/mol
same,molar entropy,220 K,94.92 ± 1.6 J/K/mol
same,molar entropy,240 K,103.2 ± 1.7 J/K/mol
same,molar entropy,260 K,111.2 ± 1.8 J/K/mol
same,molar entropy,280 K,118.8 ± 1.9 J/K/mol
same,molar entropy,298.15 K,125.5 ± 2 J/K/mol
same,molar entropy,300 K,126.2 ± 2 J/K/mol
[Ba+2].[Ce+4].[O-2].[O-2].[O-2] [barium cerium(IV) oxide],molar entropy,10 K,0.084 ± 0.025 J/K/mol
same,molar entropy,20 K,1.242 ± 0.042 J/K/mol
same,molar entropy,30 K,4.425 ± 0.15 J/K/mol
same,molar entropy,40 K,9.136 ± 0.21 J/K/mol
same,molar entropy,50 K,14.71 ± 0.29 J/K/mol
same,molar entropy,60 K,20.8 ± 0.38 J/K/mol
same,molar entropy,70 K,27.13 ± 0.48 J/K/mol
same,molar entropy,80 K,33.51 ± 0.58 J/K/mol
same,molar entropy,90 K,39.88 ± 0.71 J/K/mol
same,molar entropy,100 K,46.2 ± 0.8 J/K/mol
same,molar entropy,120 K,58.56 ± 0.99 J/K/mol
same,molar entropy,140 K,70.43 ± 1.2 J/K/mol
same,molar entropy,160 K,81.77 ± 1.4 J/K/mol
same,molar entropy,180 K,92.55 ± 1.5 J/K/mol
same,molar entropy,200 K,102.8 ± 1.7 J/K/mol
same,molar entropy,220 K,112.5 ± 1.8 J/K/mol
same,molar entropy,240 K,121.7 ± 2 J/K/mol
same,molar entropy,260 K,130.4 ± 2.1 J/K/mol
same,molar entropy,280 K,138.6 ± 2.2 J/K/mol
same,molar entropy,298.15 K,145.8 ± 2.3 J/K/mol
same,molar entropy,300 K,146.6 ± 2.4 J/K/mol
